Source: US11661426B2, “Imidazole-containing inhibitors of ALK2 kinase” (BioCryst Pharmaceuticals, Inc., priority 2017, dated 2023)

These molecules were tested against ALK2 (Homo sapiens (Human), UniProt Q04771) (assay: ALK2 inhibition, LanthaScreen Eu Kinase Binding Assay (ThermoFisher Scientific / Life Technologies)). Details: read-out: Measured Ki (IC50) Value for Compounds: IC50.
Description: Biochemical assays to measure the inhibitory effects of the compounds were performed by ThermoFisher Scientific (Life Technologies). ALK2 inhibition was tested using LanthaScreen™ Eu Kinase Binding Assay screening protocol.

Sequence of ALK2 (Q04771 21-509): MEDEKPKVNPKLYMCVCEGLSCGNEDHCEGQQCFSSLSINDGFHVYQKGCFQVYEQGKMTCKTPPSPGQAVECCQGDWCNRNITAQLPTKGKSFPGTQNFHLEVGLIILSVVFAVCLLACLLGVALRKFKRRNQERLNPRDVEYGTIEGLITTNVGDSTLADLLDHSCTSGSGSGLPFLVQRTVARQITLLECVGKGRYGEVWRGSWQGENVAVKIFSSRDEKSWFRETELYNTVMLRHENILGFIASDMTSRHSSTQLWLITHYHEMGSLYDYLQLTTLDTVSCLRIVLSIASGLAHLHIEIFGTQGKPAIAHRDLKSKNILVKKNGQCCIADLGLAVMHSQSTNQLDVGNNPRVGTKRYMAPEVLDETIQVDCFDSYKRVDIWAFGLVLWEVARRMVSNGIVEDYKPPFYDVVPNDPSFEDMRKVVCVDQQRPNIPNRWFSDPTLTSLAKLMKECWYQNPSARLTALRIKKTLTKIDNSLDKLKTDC

SMILES | IC50
COc1cc(-n2cnc(Nc3nc(N4CCC[C@H]4CO)c4cccn4n3)c2)ccc1C#N [Compound 258d, (S)-4-(4-((4-(2-(hydroxymethyl)pyrrolidin-1-yl)pyrrolo[2,1-f][1,2,4]triazin-2-yl)amino)-1H-imidazol-1-yl)-2-methoxybenzonitrile] | > 1000 nM
COc1cc(-n2cnc(Nc3nc(N4CCC[C@H]4CO)c4ccc(C(=O)N5CCCCC5)n4n3)c2)cc(OC)c1OC [Compound 259d, (S)-(4-(2-(hydroxymethyl)pyrrolidin-1-yl)-2-((1-(3,4,5-trimethoxyphenyl)-1H-imidazol-4-yl)amino)pyrrolo[2,1-f][1,2,4]triazin-7-yl)(piperidin-1-yl)methanone] | < 100 nM
COc1cc(-n2cnc(Nc3nc(N4CCC(F)(F)C4)nc4ccoc34)c2)cc(OC)c1OC [Compound 260a, 2-(3,3-difluoropyrrolidin-1-yl)-N-(1-(3,4,5-trimethoxyphenyl)-1H-imidazol-4-yl)furo[3,2-d]pyrimidin-4-amine] | < 100 nM
COc1cc(-n2cnc(Nc3nc(N4CC[C@H](N(C)C)C4)nc4ccoc34)c2)cc(OC)c1OC [Compound 261a, (S)-2-(3-(dimethylamino)pyrrolidin-1-yl)-N-(1-(3,4,5-trimethoxyphenyl)-1H-imidazol-4-yl)furo[3,2-d]pyrimidin-4-amine] | < 100 nM
OC[C@@H]1CCCN1c1nc(Nc2cn(-c3cccc(OC(F)(F)F)c3)cn2)nn2cccc12 [Compound 262d, (S)-(1-(2-((1-(3-(trifluoromethoxy)phenyl)-1H-imidazol-4-yl)amino)pyrrolo[2,1-f][1,2,4]triazin-4-yl)pyrrolidin-2-yl)methanol] | > 1000 nM
Cc1cc(OC(F)(F)F)cc(-n2cnc(Nc3nc(N4CCC[C@H]4CO)c4cccn4n3)c2)c1 [Compound 263d, (S)-(1-(2-((1-(3-methyl-5-(trifluoromethoxy)phenyl)-1H-imidazol-4-yl)amino)pyrrolo[2,1-f][1,2,4]triazin-4-yl)pyrrolidin-2-yl)methanol] | > 1000 nM
COc1cc(-n2cnc(Nc3nc4c(c(N5CCC[C@@H]5CO)n3)CCCC4)c2)cc(OC)c1OC [Compound 264b, (R)-(1-(2-((1-(3,4,5-trimethoxyphenyl)-1H-imidazol-4-yl)amino)-5,6,7,8-tetrahydroquinazolin-4-yl)pyrrolidin-2-yl)methanol] | < 100 nM
COc1cc(-n2cnc(Nc3nc(N(C)C4CCN(C)CC4)nc4ccoc34)c2)cc(OC)c1OC [Compound 265a, N2-methyl-N2-(1-methylpiperidin-4-yl)-N4-(1-(3,4,5-trimethoxyphenyl)-1H-imidazol-4-yl)furo[3,2-d]pyrimidine-2,4-diamine] | < 100 nM
COc1cc(-n2cnc(Nc3nc(N4CCC[C@H]4C(N)=O)nc4cc(F)ccc34)c2)cc(OC)c1OC [Compound 266c, (S)-1-(7-fluoro-4-((1-(3,4,5-trimethoxyphenyl)-1H-imidazol-4-yl)amino)quinazolin-2-yl)pyrrolidine-2-carboxamide] | < 100 nM
COc1c(O)cc(-n2cnc(Nc3nc(N4CCC[C@H]4CO)nn4cccc34)c2)cc1C(=O)NCC1CC1 [Compound 267i, (S)—N-(cyclopropylmethyl)-3-hydroxy-5-(4-((2-(2-(hydroxymethyl)pyrrolidin-1-yl)pyrrolo[2,1-f][1,2,4]triazin-4-yl)amino)-1H-imidazol-1-yl)-2-methoxybenzamide] | 100 to 1000 nM
COc1cc(-n2cnc(Nc3nc(N4CCC[C@H]4CO)nn4cccc34)c2)cc(C(N)=O)c1O [Compound 268b, (S)-2-hydroxy-5-(4-((2-(2-(hydroxymethyl)pyrrolidin-1-yl)pyrrolo[2,1-f][1,2,4]triazin-4-yl)amino)-1H-imidazol-1-yl)-3-methoxybenzamide] | < 100 nM
COc1cc(-n2cnc(Nc3nc(N4CCC[C@H]4CO)nc4cc(F)ccc34)c2)cc(OC)c1OC [Compound 269a, (S)-(1-(7-fluoro-4-((1-(3,4,5-trimethoxyphenyl)-1H-imidazol-4-yl)amino)quinazolin-2-yl)pyrrolidin-2-yl)methanol] | < 100 nM
COc1cc(-n2cnc(Nc3nc(N4CCC[C@H]4CO)nc4cc(N5CCC[C@H]5CO)ccc34)c2)cc(OC)c1OC [Compound 269b, ((2S,2′S)-1,1′-(4-((1-(3,4,5-trimethoxyphenyl)-1H-imidazol-4-yl)amino)quinazoline-2,7-diyl)bis(pyrrolidine-2,1-diyl))dimethanol] | < 100 nM
COc1cc(-n2cnc(Nc3nc(N4C(=O)CC[C@H]4CO)nc4ccoc34)c2)cc(OC)c1OC [Compound 270a, (S)-5-(hydroxymethyl)-1-(4-((1-(3,4,5-trimethoxyphenyl)-1H-imidazol-4-yl)amino)furo[3,2-d]pyrimidin-2-yl)pyrrolidin-2-one] | < 100 nM
COc1cc(-n2cnc(Nc3nc4c(c(N5CCC[C@H]5CO)n3)CCC4)c2)cc(OC)c1OC [Compound 271c, (S)-(1-(2-((1-(3,4,5-trimethoxyphenyl)-1H-imidazol-4-yl)amino)-6,7-dihydro-5H-cyclopenta[d]pyrimidin-4-yl)pyrrolidin-2-yl)methanol] | < 100 nM
COc1cc(-n2cnc(Nc3nc4c(c(N5CCC[C@@H]5CO)n3)CCC4)c2)cc(OC)c1OC [Compound 272b, (R)-(1-(2-((1-(3,4,5-trimethoxyphenyl)-1H-imidazol-4-yl)amino)-6,7-dihydro-5H-cyclopenta[d]pyrimidin-4-yl)pyrrolidin-2-yl)methanol] | < 100 nM
COc1cc(-n2cnc(Nc3nc4c(c(N5CCC[C@H]5CO)n3)CS(=O)(=O)CC4)c2)cc(OC)c1OC [Compound 273c, (S)-4-(2-(hydroxymethyl)pyrrolidin-1-yl)-2-((1-(3,4,5-trimethoxyphenyl)-1H-imidazol-4-yl)amino)-7,8-dihydro-5H-thiopyrano[4,3-d]pyrimidine 6,6-dioxide] | < 100 nM
COc1cc(-n2cnc(Nc3nc(N4CCC[C@H]4CO)nc4c3CN(C(C)C)C4=O)c2)cc(OC)c1OC [Compound 274c, (S)-2-(2-(hydroxymethyl)pyrrolidin-1-yl)-6-isopropyl-4-((1-(3,4,5-trimethoxyphenyl)-1H-imidazol-4-yl)amino)-5H-pyrrolo[3,4-d]pyrimidin-7(6H)-one] | < 100 nM
COc1cc(-n2cnc(Nc3nc(N4CCC[C@@H]4CO)nc4c3CN(C(C)C)C4=O)c2)cc(OC)c1OC [Compound 275a, (R)-2-(2-(hydroxymethyl)pyrrolidin-1-yl)-6-isopropyl-4-((1-(3,4,5-trimethoxyphenyl)-1H-imidazol-4-yl)amino)-5H-pyrrolo[3,4-d]pyrimidin-7(6H)-one] | < 100 nM
COc1cc(-n2cnc(Nc3nc(N4CCC[C@H]4CO)c4ccc(F)cc4n3)c2)cc(OC)c1OC [Compound 276b, (S)-(1-(7-fluoro-2-((1-(3,4,5-trimethoxyphenyl)-1H-imidazol-4-yl)amino)quinazolin-4-yl)pyrrolidin-2-yl)methanol] | < 100 nM
COc1cc(-n2cnc(Nc3nc(N4CCC[C@@H]4C(N)=O)nc4cc(OC(C)C)ccc34)c2)cc(OC)c1OC [Compound 277a, (R)-1-(7-isopropoxy-4-((1-(3,4,5-trimethoxyphenyl)-1H-imidazol-4-yl)amino)quinazolin-2-yl)pyrrolidine-2-carboxamide] | < 100 nM
COc1cc(-n2cnc(Nc3nc(N4CCC[C@@H]4CO)c4ccc(OC(C)C)cc4n3)c2)cc(OC)c1OC [Compound 278b, (R)-(1-(7-isopropoxy-2-((1-(3,4,5-trimethoxyphenyl)-1H-imidazol-4-yl)amino)quinazolin-4-yl)pyrrolidin-2-yl)methanol] | < 100 nM
